Data taken from US5834461A, “Tricyclic benzazepine vasopressin antagonists” (American Cyanamid Company, priority 1997, dated 1998).

Assays:
[1] = biological target: T1, human V2 vasopressin receptor (Homo sapiens, UniProt P30518); assay: Binding to Membranes of Mouse Fibroblast Cell Line (LV-2) Transfected with the cDNA Expressing the Human V2 Vasopressin Receptor; conditions: for IC50: LV-2 cells
T1 construct: expressed in transfected cells; host or cells: mouse fibroblast cell line LV-2
Procedure: Flasks of 175 ml capacity, containing attached cells grown to confluence, are cleared of culture medium by aspiration. The flasks containing the attached cells are rinsed with 2×5 ml of phosphate buffered saline (PBS) and the liquid aspirated off each time. Finally, 5 ml of an enzyme free dissociation Hank's based solution (Specialty Media, Inc., Lafayette, N.J.) is added and the flasks are left undisturbed for 2 min. The content of all flasks is poured into a centrifuge tube and the cells pelleted at 300×g for 15 min. The Hank's based solution is aspirated off and the cells homogenized with a polytron at setting #6 for 10 sec in 10.0 mM Tris.HCl buffer, pH 7.4 containing 0.25M sucrose and 1.0 mM EDTA. The homogenate is centrifuged at 1500×g for 10 min to remove ghost membranes. The supernatant fluid is centrifuged at 100,000×g for 60 min to pellet the receptor protein. Upon completion, the pellet is resuspended in a small volume of 50.0 mM Tris.HCl buffer, pH 7.4. The protein content is determined by the Lowry method and the receptor membranes are suspended in 50.0 mM Tris.HCl buffer containing 0.1 mM phenylmethylsulfonylfluoride (PMSF) and 0.2% bovine serum albumin (BSA) to give 2.5 mg receptor protein per ml of suspension.
For binding experiments, the following is added in μl volume to wells of a 96 well format of a microtiter plate: 100.0 μl of 100.0 mM Tris.HCl buffer containing 0.2% heat inactivated BSA, 10.0 mM MgCl2 and a mixture of protease inhibitors: leupeptin, 1.0 mg %; aprotinin, 1.0 mg %; 1,10-phenanthroline, 2.0 mg %; trypsin inhibitor, 10.0 mg % and 0.1 mM PMSF., 20.0 μl of [^3 H] Arginine^8, vasopressin (S.A. 75.0 Ci/mmole) at 0.8 nM and the reaction initiated by the addition of 80.0 μl of tissue membranes ([…]).
The plates are left undisturbed on the bench top for 120 min to reach equilibrium. Non specific binding is assessed in the presence of 1.0 μM of unlabeled ligand, added in 20 μl volume. For test compounds, these are solubilized in 50% dimethylsulfoxide (DMSO) and added in 20.0 μl volume to a final incubation volume of 200 μl. Upon completion of binding, the content of each well is filtered off, using a Brandel® cell Harvester (Gaithersburg, Md.). The radioactivity trapped on the filter disk by the ligand-receptor complex is assessed by liquid scintillation counting in a Packard LS Counter, with an efficiency of 65% for tritium.

[2] = biological target: T2, vasopressin V1 receptor subtype in human platelet membranes (Homo sapiens, UniProt P37288); assay: Binding to Vasopressin V1 Receptor Subtype in Human Platelet Membranes; conditions: for IC50: human platelet V1 (*)
T2 construct: tissue Hudson Valley Blood Services; host or cells: human blood platelets (frozen platelet rich plasma)
T2 sequence (P37288 whole entry): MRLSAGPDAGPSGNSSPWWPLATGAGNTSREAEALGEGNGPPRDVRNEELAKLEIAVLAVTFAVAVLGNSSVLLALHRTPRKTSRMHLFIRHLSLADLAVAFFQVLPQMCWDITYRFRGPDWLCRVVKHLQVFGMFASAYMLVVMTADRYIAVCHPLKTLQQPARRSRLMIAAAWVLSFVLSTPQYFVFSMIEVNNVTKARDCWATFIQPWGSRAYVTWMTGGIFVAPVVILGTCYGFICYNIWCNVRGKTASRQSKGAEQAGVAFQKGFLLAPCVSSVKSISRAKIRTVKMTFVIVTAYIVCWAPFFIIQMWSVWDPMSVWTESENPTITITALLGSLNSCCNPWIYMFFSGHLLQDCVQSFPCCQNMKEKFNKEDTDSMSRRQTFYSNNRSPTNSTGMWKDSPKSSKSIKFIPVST
Procedure: (a) Platelet Membrane Preparation:
Frozen platelet rich plasma (PRP), received from the Hudson Valley Blood Services, are thawed to room temperature. (Platelet Source: Hudson Valley Blood Services, Westchester Medical Center, Valhalla, N.Y.). The tubes containing the PRP are centrifuged at 16,000×g for 10 min. at 4° C. and the supernatant fluid discarded. The platelets resuspended in an equal volume of 50.0 mM Tris.HCl, pH 7.5 containing 120 mM NaCl and 20.0 mM EDTA. The suspension is recentrifuged at 16,000×g for 10 min. This washing step is repeated one more time. The wash discarded and the lysed pellets homogenized in low ionic strength buffer of Tris.HCl, 5.0 mM, pH 7.5 containing 5.0 mM EDTA. The homogenate is centrifuged at 39,000×g for 10 min. The resulting pellet is resuspended in Tris.HCl buffer, 70.0 mM, pH 7.5 and recentrifuged at 39,000×g for 10 min. The final pellet is resuspended in 50.0 mM Tris.HCl buffer pH 7.4 containing 120 mM NaCl and 5.0 mM KCl to give 1.0-2.0 mg protein per ml of suspension.
(b) Binding to Vasopressin V1 Receptor Subtype in Human Platelet Membranes:
In wells of a 96 well format microtiter plate, add 100 μl of 50.0 mM Tris.HCl buffer containing 0.2% BSA and a mixture of protease inhibitors (aprotinin, leupeptin etc.). Then add 20 μl of [^3 H]Ligand (Manning or Arg^8 Vasopressin), to give final concentrations ranging from 0.01 to 10.0 nM. Initiate the binding by adding 80.0 μl of platelet suspension (approx. 100 μg protein). Mix all reagents by pipetting the mixture up and down a few times. Non specific binding is measured in the presence of 1.0 μM of unlabeled ligand (Manning or Arg^8 Vasopressin). Let the mixture stand undisturbed at room temperature for ninety (90) min. Upon this time, rapidly filter off the incubate under vacuum suction over GF/B filters, using a Brandel Harvester. The radioactivity caught on the filter disks is determined by the addition of liquid scintillant and counting in a liquid scintillator.

[3] = system: vasopressin V2; assay: Vasopressin V2 Antagonist Activity in Conscious Hydrated Rats (diuretic effect); type: in vivo, normal Sprague-Dawley rats; conditions: 10 mg/kg orally, AVP 0.4 μg/kg i.p.
Summary of the method: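 Conscious rats were dosed orally at 0.1–100 mg/kg, and AVP 0.4 μg/kg i.p. in peanut oil followed 1 h later. Urine volume, osmolality and Na/K/Cl were compared against AVP-treated controls, with non-AVP rats as water-loading controls.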

[4] = system: vasopressin V1; assay: Vasopressin V1 Antagonist Activity in Conscious Rats (vasopressin vasopressor response); type: in vivo, rat (spontaneously hypertensive rats); conditions: 10 mg/kg i.v.
Summary of the method: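 Conscious rats had the ventral caudal tail artery cannulated into the lower abdominal aorta under local procaine anesthesia, plus a caudal vein cannula for intravenous dosing. Pulsatile blood pressure was recorded via a Statham P23Db transducer. Vasopressor responses to vasopressin injections were measured before and after compound dosing, with percent antagonism calculated relative to the pre-drug response taken as 100%.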

[5] = biological target: T1, human V2 vasopressin receptor; assay: Binding to Membranes of Mouse Fibroblast Cell Line (LV-2) Transfected with the cDNA Expressing the Human V2 Vasopressin Receptor; conditions: V2 column, printed with one *, read-out: V2, % at concentration in brackets

T1 sequence (P30518 whole entry): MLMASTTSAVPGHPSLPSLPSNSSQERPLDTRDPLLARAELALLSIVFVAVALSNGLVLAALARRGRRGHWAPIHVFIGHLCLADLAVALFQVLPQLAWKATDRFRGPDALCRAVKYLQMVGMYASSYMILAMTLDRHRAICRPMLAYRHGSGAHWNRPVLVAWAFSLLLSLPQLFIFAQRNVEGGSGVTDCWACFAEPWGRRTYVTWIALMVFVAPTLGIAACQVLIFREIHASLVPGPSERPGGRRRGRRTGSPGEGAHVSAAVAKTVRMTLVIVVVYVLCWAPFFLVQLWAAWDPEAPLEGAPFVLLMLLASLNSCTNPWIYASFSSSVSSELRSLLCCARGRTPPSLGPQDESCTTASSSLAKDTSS

SMILES | IC50 [1] [nM] | IC50 [2] [nM] | Osmolality [3] [mOsm/kg] | Urine Volume [3] [ml/4 hrs.] | inhibition at 1 µM ([1]; 1 μM, read-out: **V2, % at concentration in brackets) [%] | inhibition at 1 µM ([2]; 1.5 h, 1 μM, human platelet (*), read-out: *V1, % at concentration in brackets) [%] | MAX % Inhibition [4] [%] | Time of max % inhibition [4] [min] | inhibition at 10 µM [5] [%] | inhibition at 10 µM ([2]; 1.5 h, 10 μM, human platelet (*), read-out: *V1, % at concentration in brackets) [%]
CCOC(=O)Cn1cc2c(n1)-c1ccccc1N(C(=O)c1ccc(NC(=O)c3ccc(Cl)cc3Cl)cc1)CC2 [Example 452, Ethyl 6-[4-[(2,4-dichlorobenzoyl)amino]benzoyl]-5,6-dihydropyrazolo[4,3-d][1]benzazepine-2(4H)-acetate] | 10 | 470 | 584 | 7.8 | – | – | – | – | – | –
O=C(O)Cn1cc2c(n1)-c1ccccc1N(C(=O)c1ccc(NC(=O)c3ccc(Cl)cc3Cl)cc1)CC2 [Example 451, 6-[4-[(2,4-Dichlorobenzoyl)amino]benzoyl]-5,6-dihydropyrazolo[4,3-d][1]benzazepine-2(4H)-acetic acid] | – | – | 989 | 5.3 | 69 | 35 | – | – | – | –
Cc1c(F)cccc1C(=O)Nc1ccc(C(=O)N2Cc3ccccc3Cc3ccccc32)c(Cl)c1 [Example 264, N-[4-[(6,11-Dihydro-5H-dibenz[b,e]azepin-5-yl)-carbonyl]-3-chlorophenyl]-2-methyl-3-fluorobenzamide] | 28 | 980 | 682 | 12 | – | – | – | – | – | –
Cc1ccccc1C(=O)Nc1ccc(C(=O)N2Cc3sccc3Cc3ccccc32)cc1 [Example 458] | 0.71 | 1.8 | 537 | 13.5 | – | – | 77 | 180 | – | –
Cc1ccccc1C(=O)Nc1ccc(C(=O)N2Cc3ccsc3Cc3ccccc32)cc1 [Example 456, N-[4-[(4,10-Dihydro-5H-thieno[3,2-c][1]benzazepin-5-yl)carbonyl]phenyl]-2-methylbenzamide] | 9 | 36 | 1209 | 4.8 | – | – | – | – | – | –
Cc1ccccc1NC(=O)Nc1ccc(C(=O)N2Cc3ccccc3Cc3ccccc32)cc1 [Example 122, 6,11-Dihydro-5-[4-[[[(2-methylphenyl)amino]carbonyl]-amino]benzoyl]-5H-dibenz[b,e]azepine] | – | – | – | – | – | – | – | – | 92 | 95
